Source: patent publication US20260297081A1, “COMPOUNDS AND METHODS OF TREATING CANCERS” (Cullgen Inc., priority 2023, published 2026)

tested on: MCF7 cells; assay: Anti-proliferation (viability) of MCF7 cells (Table 7, FIG. 2B); assay type: cell-based; conditions: Homo sapiens, MCF7, MCF7 cells, 3-6 days, 10-point serial dilution; read-out: GI IC50 in MCF-7

IC50 [nM] | SMILES
> 100 | CNc1ccc(C(=O)Nc2ccc(N(C)C)nn2)c(NC2CC3(C2)CC(C(=O)N2CC(N4CCN(c5ccc(Nc6ncc7c(C)c(C(C)=O)c(=O)n(C8CCCC8)c7n6)nc5)CC4)C2)C3)n1 (stereo not shown) [CPD-362, 2-((6-(3-(4-(6-((6-acetyl-8-cyclopentyl-5-methyl-7-oxo-7,8-dihydropyrido[2,3-d]pyrimidin-2-yl)amino)pyridin-3-yl)piperazin-1-yl)azetidine-1-carbonyl)spiro[3.3]heptan-2-yl)amino)-N-(6-(dimethylamino)pyridazin-3-yl)-6-(methylamino)nicotinamide]
> 100 | CNc1ccc(C(=O)Nc2ccc(N(C)C)nn2)c(NC2CC3(C2)CC(C(=O)N2CC4(CCN(c5ccc(Nc6ncc7c(C)c(C(C)=O)c(=O)n(C8CCCC8)c7n6)nc5)CC4)C2)C3)n1 (stereo not shown) [CPD-363]
> 100 | CNc1ccc(C(=O)Nc2ccc(N(C)C)nn2)c(NC2CC3(C2)CN(C(=O)C2CN(C4CCN(c5ccc(Nc6ncc7c(C)c(C(C)=O)c(=O)n(C8CCCC8)c7n6)nc5)CC4)C2)C3)n1 [CPD-364, 2-((2-(1-(1-(6-((6-acetyl-8-cyclopentyl-5-methyl-7-oxo-7,8-dihydropyrido[2,3-d]pyrimidin-2-yl)amino)pyridin-3-yl)piperidin-4-yl)azetidine-3-carbonyl)-2-azaspiro[3.3]heptan-6-yl)amino)-N-(6-(dimethylamino)pyridazin-3-yl)-6-(methylamino)nicotinamide]
< 50 | CC(=O)c1c(C)c2cnc(Nc3ccc(N4CCN(C(C)CC(=O)NC5CC(Nc6nc(NC(C)C)ccc6C(=O)Nc6ccc(N(C)C)nn6)C5)CC4)cn3)nc2n(C2CCCC2)c1=O (stereo not shown) [CPD-365, 2-((3-(3-(4-(6-((6-acetyl-8-cyclopentyl-5-methyl-7-oxo-7,8-dihydropyrido[2,3-d]pyrimidin-2-yl)amino)pyridin-3-yl)piperazin-1-yl)butanamido)cyclobutyl)amino)-N-(6-(dimethylamino)pyridazin-3-yl)-6-(isopropylamino)nicotinamide]
> 100 | CC(=O)c1c(C)c2cnc(Nc3ccc(N4CCN(C5(C(=O)NC6CC7(C6)CC(Nc6nc(NC(C)C)ccc6C(=O)Nc6cn(C)c(C8CC8)n6)C7)CC5)CC4)cn3)nc2n(C2CCCC2)c1=O (stereo not shown) [CPD-366, 2-((6-(1-(4-(6-((6-acetyl-8-cyclopentyl-5-methyl-7-oxo-7,8-dihydropyrido[2,3-d]pyrimidin-2-yl)amino)pyridin-3-yl)piperazin-1-yl)cyclopropane-1-carboxamido)spiro[3.3]heptan-2-yl)amino)-N-(2-cyclopropyl-1-methyl-1H-imidazol-4-yl)-6-(isopropylamino)nicotinamide]
50 to 100 | CC(=O)c1c(C)c2cnc(Nc3ccc(N4CCN(CC(=O)N5CCC(Nc6nc(NC(C)C)ccc6C(=O)Nc6ccc(N(C)C)nn6)CC5)CC4)cn3)nc2n(C2CCCC2)c1=O [CPD-369, 2-((1-(2-(4-(6-((6-acetyl-8-cyclopentyl-5-methyl-7-oxo-7,8-dihydropyrido[2,3-d]pyrimidin-2-yl)amino)pyridin-3-yl)piperazin-1-yl)acetyl)piperidin-4-yl)amino)-N-(6-(dimethylamino)pyridazin-3-yl)-6-(isopropylamino)nicotinamide]
< 50 | CC(=O)c1c(C)c2cnc(Nc3ccc(N4CCN(C(C)CC(=O)N5CCC(Nc6nc(NC(C)C)ccc6C(=O)Nc6ccc(N(C)C)nn6)C5)CC4)cn3)nc2n(C2CCCC2)c1=O (stereo not shown) [CPD-370, 2-((1-(3-(4-(6-((6-acetyl-8-cyclopentyl-5-methyl-7-oxo-7,8-dihydropyrido[2,3-d]pyrimidin-2-yl)amino)pyridin-3-yl)piperazin-1-yl)butanoyl)pyrrolidin-3-yl)amino)-N-(6-(dimethylamino)pyridazin-3-yl)-6-(isopropylamino)nicotinamide]
> 100 | CC(=O)c1c(C)c2cnc(Nc3ccc(N4CCN(C5(C(=O)NC6CC7(C6)CC(Nc6nc(NC(C)C)ccc6C(=O)Nc6cc(C)on6)C7)CC5)CC4)cn3)nc2n(C2CCCC2)c1=O (stereo not shown) [CPD-371, 2-((6-(1-(4-(6-((6-acetyl-8-cyclopentyl-5-methyl-7-oxo-7,8-dihydropyrido[2,3-d]pyrimidin-2-yl)amino)pyridin-3-yl)piperazin-1-yl)cyclopropane-1-carboxamido)spiro[3.3]heptan-2-yl)amino)-6-(isopropylamino)-N-(5-methylisoxazol-3-yl)nicotinamide]
> 100 | CC(=O)c1c(C)c2cnc(Nc3ccc(N4CCC(NCC(=O)N5CCC(Nc6nc(NC(C)C)ccc6C(=O)Nc6ccc(N(C)C)nn6)C5)CC4)cn3)nc2n(C2CCCC2)c1=O (stereo not shown) [CPD-372, 2-((1-((1-(6-((6-acetyl-8-cyclopentyl-5-methyl-7-oxo-7,8-dihydropyrido[2,3-d]pyrimidin-2-yl)amino)pyridin-3-yl)piperidin-4-yl)glycyl)pyrrolidin-3-yl)amino)-N-(6-(dimethylamino)pyridazin-3-yl)-6-(isopropylamino)nicotinamide]
> 100 | CNc1ccc(C(=O)Nc2ccc(N(C)C)nn2)c(NC2CC3(C2)CC(C(=O)NC2CC4(CCN(c5ccc(Nc6ncc7c(C)c(C(C)=O)c(=O)n(C8CCCC8)c7n6)nc5)CC4)C2)C3)n1 (stereo not shown) [CPD-374, 2-((6-((7-(6-((6-acetyl-8-cyclopentyl-5-methyl-7-oxo-7,8-dihydropyrido[2,3-d]pyrimidin-2-yl)amino)pyridin-3-yl)-7-azaspiro[3.5]nonan-2-yl)carbamoyl)spiro[3.3]heptan-2-yl)amino)-N-(6-(dimethylamino)pyridazin-3-yl)-6-(methylamino)nicotinamide]
> 100 | CNc1ccc(C(=O)Nc2ccc(N(C)C)nn2)c(NC2CC(C(=O)NC3CC4(CCN(c5ccc(Nc6ncc7c(C)c(C(C)=O)c(=O)n(C8CCCC8)c7n6)nc5)CC4)C3)C2)n1 (stereo not shown) [CPD-375, 2-((3-((7-(6-((6-acetyl-8-cyclopentyl-5-methyl-7-oxo-7,8-dihydropyrido[2,3-d]pyrimidin-2-yl)amino)pyridin-3-yl)-7-azaspiro[3.5]nonan-2-yl)carbamoyl)cyclobutyl)amino)-N-(6-(dimethylamino)pyridazin-3-yl)-6-(methylamino)nicotinamide]
> 100 | CNc1ccc(C(=O)Nc2ccc(N(C)C)nn2)c(NC2CC3(C2)CC(C(=O)N2CC(C4CCN(c5ccc(Nc6ncc7c(C)c(C(C)=O)c(=O)n(C8CCCC8)c7n6)nc5)CC4)C2)C3)n1 (stereo not shown) [CPD-376, 2-((6-(3-(1-(6-((6-acetyl-8-cyclopentyl-5-methyl-7-oxo-7,8-dihydropyrido[2,3-d]pyrimidin-2-yl)amino)pyridin-3-yl)piperidin-4-yl)azetidine-1-carbonyl)spiro[3.3]heptan-2-yl)amino)-N-(6-(dimethylamino)pyridazin-3-yl)-6-(methylamino)nicotinamide]
50 to 100 | CC(=O)c1c(C)c2cnc(Nc3ccc(N4CCN(CC(=O)NC(C)C5CC(Nc6nc(NC(C)C)ccc6C(=O)Nc6cc(C)on6)C5)CC4)cn3)nc2n(C2CCCC2)c1=O (stereo not shown) [CPD-377, 2-((3-(1-(2-(4-(6-((6-acetyl-8-cyclopentyl-5-methyl-7-oxo-7,8-dihydropyrido[2,3-d]pyrimidin-2-yl)amino)pyridin-3-yl)piperazin-1-yl)acetamido)ethyl)cyclobutyl)amino)-6-(isopropylamino)-N-(5-methylisoxazol-3-yl)nicotinamide]
